Consider 2 molecules from patent US20070093549A1, “Methods for preparation of ladostigil tartrate crystalline form A1” (priority 2005, published 2007).

For series [1], the system named is animal models of Alzheimer's disease. As to conditions: background statement with literature references; cited from earlier work.
The nature of series [2]: Effect of micronization, pressing and grinding (XRD). It is filed as physicochemical. As to conditions: pressing 1 minute at 100 metric tons, by XRD. As for the experimental part: (§1) X-Ray powder diffraction data were obtained by a SCINTAG powder X-Ray diffractometer model X'TRA equipped with a solid state detector. Copper radiation of 1.5418 Å was used. A round aluminum sample holder with round zero background quartz plate, with cavity of 25 (diameter)*0.5 (depth) mm was used.
The effects of micronization, pressing (1 minute at 100 metric tons) and grinding were determined by XRD and the following results were obtained: […]

A short description of series [3]: Exposure of form A1 to various humidity conditions (TGA and crystal form). Format: physicochemical. As for the experimental part: as §1
TGA analysis was done using a Mettler M3 meter. The weight of the samples was about 10 mg. The samples were scanned at a rate of 10° C./min from 25° C. to 200° C. The oven was constantly purged with nitrogen gas at a flow rate of 40 ml/min. Standard 70 μl alumina crucibles covered by lids with 1 hole were used.
Ladostigil tartrate form A1 was exposed to various humidity conditions at room temperature for 14 days. TGA was performed, and crystal form was analyzed.

[4] abbreviates: RH 100%, room temperature, 14 days.

In the case of `C#CCN[C@@H]1CCc2ccc(OC(=O)N(C)CC)cc21` [Ladostigil, ethyl-methyl-carbamic acid (R)-3-prop-2-ynylamino-indan-5-yl ester], in series [1], the “efficacy in animal models of Alzheimer's disease” value is “effective”.

As for “carbamic acid, ethylmethyl-, (3R)-2,3-dihydro-3-(2-propynylamino)-1H-inden-5-yl ester, (2R,3R)-2,3-dihydroxybutanedioate (2:1) [Ladostigil tartrate form A1]”, in series [2], the crystallinity after pressing result was “lose some extent of crystallinity”. Besides, the TGA in series [3] (RH 60%, room temperature, 14 days) came to 0.2; in series [3] (RH 80%, room temperature, 14 days), 0.1; in series [3] (setting [4]), 0.1. Also, in series [3] (setting [4]), the Resulting form result was “transformed to a mixture of Form A and A1”. In addition, the water content change result in series [3] (after exposure to 100% RH for 14 days) is listed as “did not change significantly”. Further, in series [3] (concluded from humidity exposure results), the hygroscopicity entry is reported as “neither Form A nor Form A1 is hygroscopic”.
